Reference: patent US20140336216A1, “PHYSIOLOGICAL LIGANDS FOR GPR139” (Janssen Pharmaceutica NV, priority 2013, published 2014)
“And” between values parts separate entries of the source, which are not always exact repeats. Identical values can stand only once.

Legend:
[1] = test system: GO2Q alone; experiment: GTPγS binding assay, control COS7 membranes expressing GO2Q alone (Ct-GO2Q); assay type: biochemical; settings: for Activation levels (GTPγS binding), Ct-GO2Q: 1 mM final concentration, COS7 membranes expressing GO2Q alone, single wells of triplicate; for Activation of membranes from cells expressing GO2Q alone: same assay, 1 mM
Description: (§1) In order identify the ligands for GPR139 two improvements in the detection assay were made to allow for the ligands to be detected. First, we chose to use a GTPγS binding assay instead of using live cultured cells. The GTPγS binding assay is a cell free system that uses the cell membrane of the cell(s) of interest rather than the live cell(s). One advantage of this assay is that potential ligands present in the cell culture media are washed away when the cell membrane is prepared. This reduces the basal level of signal and increase the chance of detecting receptor ligands when assessing compounds that activate the receptor. Second, a GO2Q chimeric G-protein was created to be co-expressed with GPR139 in order to increase the signal-to-noise ratio in the GTPγS binding assay. Historically, the Gi, Go coupled GPCRs offer much greater signal-to-noise ratio in GTPγS binding studies. For Gs and Gq coupled GPCRs, although ligand-stimulated specific signals can be detected in a GTPγS binding assay, the signal-to-noise ratios are often very small. To address this a chimeric GO2-Gq chimeric G-protein, GO2Q, with the N-terminus from Go2 protein and the C-terminus from Gq protein.
(§2) To test for compounds that activate GPR139, different amino acids and their derivatives (Table 2) were tested as ligands in the GTPγS binding assay using cell membranes from COS7 cells co-expressing GPR139 and GO2Q. Cell membrane from COS7 cells expressing GO2Q alone or co-expressing other GPCRs were also tested in GTPγS binding assay in parallel as controls. Each compound was tested in triplicate.

[2] = test system: GPR21, GPR52, GPCR119, GPCR132, GPCR134, or GPR182; experiment: GTPγS binding assay, control membranes co-expressing GO2Q and other GPCRs (data not shown); assay type: biochemical
Description: as §2

[3] = molecular target: T1, mouse GPR139 (Mus musculus, UniProt Q80UC8); experiment: GTPγS binding dose response study, mouse GPR139 co-transfected with GO2Q into COS7 cells; assay type: biochemical; settings: mouse GPR139, FIG. 2C and 2D
T1 construct: expressed in transfected cells; host or cells: COS7 (membranes)
T1 sequence (Q80UC8 1-345): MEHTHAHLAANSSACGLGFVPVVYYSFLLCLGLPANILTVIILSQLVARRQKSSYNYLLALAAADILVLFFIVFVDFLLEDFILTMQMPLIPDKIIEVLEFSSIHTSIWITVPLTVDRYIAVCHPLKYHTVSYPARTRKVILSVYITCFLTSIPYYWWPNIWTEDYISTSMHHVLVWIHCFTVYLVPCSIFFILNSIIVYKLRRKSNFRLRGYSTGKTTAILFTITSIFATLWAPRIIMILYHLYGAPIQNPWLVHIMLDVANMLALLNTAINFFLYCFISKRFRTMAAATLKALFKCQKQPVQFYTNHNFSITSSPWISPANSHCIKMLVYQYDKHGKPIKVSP
From the text: (§3) FIG. 2-FIG. 2F: Tryptophan, phenylalanine, and their derivatives activate GPR139. Human (FIG. 2A and FIG. 2B) or mouse (FIG. 2C and FIG. 2D) GPR139 were co-transfected with chimeric G-protein GO2Q into COS7 cells. Cell membranes from transfected cells were used in GTPγS binding studies using various ligands at different concentrations to stimulate GPR139. FIG. 2E and FIG. 2F show control experiments in the dose response studies of Example 1.

[4] = molecular target: T2, N-terminally V-tagged mouse GPR139 (Mus musculus, UniProt Q80UC8); experiment: GPR139 internalization in transiently transfected HEK-293 cells; assay type: cell-based; settings: FIG. 4
T2 construct: V tag (printed 'V-tagged' and 'VS-tagged'); expressed in transfected cells; host or cells: HEK-293 (transient)
T2 sequence (Q80UC8 1-345): T1 sequence (Q80UC8 1-345)
From the text: Many GPCRs are internalize by the cell when they are activated.

[5] = molecular target: T3, GPR139 (Homo sapiens, UniProt Q6DWJ6); experiment: GTPγS binding assay, single-concentration screen, COS7 membranes co-expressing GPR139 and GO2Q; assay type: biochemical; set-up: expressed in transfected cells; host or cells: COS7 (membranes); settings: for Activation of GPR139 in the GTPγS binding assay: 1 mM; for Activation levels of GPR139 (GTPγS binding), GPR139-GO2Q: 1 mM final concentration, COS7 membranes co-expressing GPR139 and GO2Q, single wells of triplicate
T3 sequence (Q6DWJ6 1-353): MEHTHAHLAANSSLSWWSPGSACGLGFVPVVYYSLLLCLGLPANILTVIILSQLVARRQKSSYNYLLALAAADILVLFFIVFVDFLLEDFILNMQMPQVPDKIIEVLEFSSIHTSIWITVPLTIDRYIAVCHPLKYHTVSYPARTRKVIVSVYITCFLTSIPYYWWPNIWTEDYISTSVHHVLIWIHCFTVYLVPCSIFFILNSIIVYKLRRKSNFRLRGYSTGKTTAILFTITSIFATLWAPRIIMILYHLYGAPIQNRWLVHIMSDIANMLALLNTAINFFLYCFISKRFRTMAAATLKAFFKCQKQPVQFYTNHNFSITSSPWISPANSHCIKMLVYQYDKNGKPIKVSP
Description: as §1, §2

[6] = molecular target: T3, GPR139; experiment: GTPγS binding dose response study, human GPR139 co-transfected with GO2Q into COS7 cells; assay type: biochemical; set-up: expressed in transfected cells; host or cells: COS7 (membranes); settings: human GPR139, FIG. 2A and 2B
From the text: as §3

[7] = molecular target: T3, GPR139; experiment: Calcium mobilization assay (FLIPR), GPR139 expressed in HEK293 cells; assay type: cell-based; set-up: expressed in transfected cells; host or cells: HEK293 (transient); settings: for EC50: GPR139 expressing HEK293 cells, read-out: EC50 (half maximal effective concentration), calcium mobilization; for Stimulation of calcium mobilization: human GPR139 transiently expressed in HEK293 cells, FIG. 3
Description: FIG. 3A and FIG. 3B: Provides the results of experiments conducted to determine whether Trp and its derivatives (FIG. 3A) and Phe and its derivatives (FIG. 3B) stimulate Ca^2+ mobilization in HEK293 cells expressing GPR139.
The active compounds were also tested in a calcium mobilization assay (FLIPR® assay). For these experiments human GPR139 was transiently expressed in HEK293 cells and calcium mobilization was stimulated using L-Trp, L-Phe or their derivatives. […] The concentrations of L-Trp and L-Phe in many cell culture media (for instance DMEM is about 80 μM and 750 μM respectively) are close to the EC50 values of L-Trp and L-Phe for GPR139. […] This may explain why GPR139 appeared constitutively active when recombinantly expressed in mammalian cells.
About 300 additional phenylalanine analogues have been tested for GPR139 activation using a calcium mobilization (FLIPR®) assay. The results of these experiments indicate that many of these analogues can also activate GPR139. Table 4 lists certain phenylalanine analogues that have been determined to activate GPR139 by calcium mobilization at a concentration of 300 μM (calcium mobilization is expressed as percentage of that observed for L-phenylalanine).

Row | SMILES | Activation levels (GTPγS binding), Ct-GO2Q [1] | Activation of membranes from cells expressing GO2Q alone [1] | Activation of membranes from cells co-expressing GO2Q and other GPCRs [2] | Dose-responsive activation of GPR139 (GTPγS binding) [3] | Internalization of tagged GPR139 upon stimulation [4] | Activation of GPR139 in the GTPγS binding assay [5] | Activation levels of GPR139 (GTPγS binding), GPR139-GO2Q [5] | Dose-responsive activation of GPR139 (GTPγS binding) [6] | EC50 [7] | Stimulation of calcium mobilization [7]
1 | N[C@@H](Cc1ccccc1)C(=O)O [Phe, L-phenylalanine] | 2190 and 2215 and 2345 | did not activate | did not activate | specifically activate GPR139 in a dose-responsive manner | internalized | able to activate GPR139 | 8697 and 6925 and 8417 | specifically activate GPR139 in a dose-responsive manner | 100 to 200 µM | specifically stimulate calcium mobilization
2 | N[C@@H](Cc1c[nH]c2ccccc12)C(=O)O [Trp, L-tryptophan] | 2172 and 2234 and 2272 | did not activate | did not activate | specifically activate GPR139 in a dose-responsive manner | internalized | able to activate GPR139 | 8141 and 9121 and 9149 | specifically activate GPR139 in a dose-responsive manner | 100 to 200 µM | specifically stimulate calcium mobilization
